Data from the NIST ThermoML archive (doi:10.1021/je700062x).
Numbers after ± are expanded uncertainties.

Experiment: wn = mass fraction of the nth substance listed
Details: 101 kPa, Liquid, controlled-strain rheometer (ARES-RFS, TA Instruments)

| Structure (SMILES) | viscosity (273.15 K, w1 = 0.05) [mPa·s] | viscosity (273.15 K, w1 = 0.1) [mPa·s] | viscosity (273.15 K, w1 = 0.2) [mPa·s] | viscosity (273.15 K, w1 = 0.3) [mPa·s] | viscosity (273.15 K, w1 = 0.4) [mPa·s] | viscosity (278.15 K, w1 = 0.05) [mPa·s] | viscosity (278.15 K, w1 = 0.1) [mPa·s] | viscosity (278.15 K, w1 = 0.2) [mPa·s] | viscosity (278.15 K, w1 = 0.3) [mPa·s] | viscosity (278.15 K, w1 = 0.4) [mPa·s] | viscosity (283.15 K, w1 = 0.05) [mPa·s] | viscosity (283.15 K, w1 = 0.1) [mPa·s] | viscosity (283.15 K, w1 = 0.2) [mPa·s] | viscosity (283.15 K, w1 = 0.3) [mPa·s] | viscosity (283.15 K, w1 = 0.4) [mPa·s] | viscosity (293.15 K, w1 = 0.05) [mPa·s] | viscosity (293.15 K, w1 = 0.1) [mPa·s] | viscosity (293.15 K, w1 = 0.2) [mPa·s] | viscosity (293.15 K, w1 = 0.3) [mPa·s] | viscosity (293.15 K, w1 = 0.4) [mPa·s] | further results |
| --- | --- | --- | --- | --- | --- | --- | --- | --- | --- | --- | --- | --- | --- | --- | --- | --- | --- | --- | --- | --- | --- |
| O=C[C@H](O)[C@@H](O)[C@@H](O)[C@H](O)CO [(+)-galactose] + O | 2.42 ± 0.26 | 2.779 ± 0.31 | 4.27 ± 0.43 | 6.93 ± 0.7 | 14.56 ± 1.5 | 2.077 ± 0.21 | 2.4 ± 0.28 | 3.37 ± 0.47 | 5.34 ± 0.54 | 11.17 ± 1.1 | 1.699 ± 0.17 | 2.107 ± 0.21 | 2.76 ± 0.45 | 4.57 ± 0.57 | 9 ± 0.91 | 1.397 ± 0.22 | 1.52 ± 0.35 | 2.1 ± 0.24 | 3.27 ± 0.66 | 6.11 ± 0.61 | viscosity (268.15 K, w1 = 0.3): 8.95 ± 1.3 mPa·s; viscosity (268.15 K, w1 = 0.4): 18.84 ± 1.9 mPa·s; viscosity (273.15 K, w1 = 0.15): 3.325 ± 0.33 mPa·s; viscosity (278.15 K, w1 = 0.15): 2.77 ± 0.28 mPa·s; viscosity (283.15 K, w1 = 0.15): 2.469 ± 0.25 mPa·s; viscosity (293.15 K, w1 = 0.15): 1.77 ± 0.31 mPa·s |
| O=C(CO)[C@@H](O)[C@H](O)[C@H](O)CO [D-fructose] + O | 2.345 ± 0.23 | 2.89 ± 0.33 | 4.2 ± 0.42 | 6.39 ± 0.78 | 14.02 ± 1.4 | 1.999 ± 0.2 | 2.44 ± 0.24 | 3.39 ± 0.52 | 5.5 ± 0.55 | 10.84 ± 1.1 | 1.681 ± 0.17 | 1.991 ± 0.2 | 2.859 ± 0.29 | 4.45 ± 0.45 | 8.07 ± 0.81 | 1.26 ± 0.28 | 1.43 ± 0.35 | 2.092 ± 0.21 | 3.07 ± 0.38 | 5.67 ± 0.57 | viscosity (263.15 K, w1 = 0.7): 4270 ± 1100 mPa·s; viscosity (268.15 K, w1 = 0.3): 7.97 ± 0.8 mPa·s; viscosity (268.15 K, w1 = 0.4): 18.51 ± 1.9 mPa·s; viscosity (268.15 K, w1 = 0.5): 54.8 ± 5.7 mPa·s; viscosity (268.15 K, w1 = 0.6): 238 ± 27 mPa·s; viscosity (268.15 K, w1 = 0.7): 2446 ± 500 mPa·s; viscosity (273.15 K, w1 = 0.5): 35.06 ± 3.6 mPa·s; viscosity (273.15 K, w1 = 0.6): 148.7 ± 16 mPa·s; viscosity (273.15 K, w1 = 0.7): 1418 ± 230 mPa·s; viscosity (278.15 K, w1 = 0.5): 25.27 ± 2.6 mPa·s; viscosity (278.15 K, w1 = 0.6): 103.4 ± 11 mPa·s; viscosity (278.15 K, w1 = 0.7): 843 ± 120 mPa·s; viscosity (283.15 K, w1 = 0.5): 19.44 ± 2 mPa·s; viscosity (283.15 K, w1 = 0.6): 72 ± 7.5 mPa·s; viscosity (283.15 K, w1 = 0.7): 509.4 ± 63 mPa·s; viscosity (293.15 K, w1 = 0.5): 14.33 ± 1.4 mPa·s; viscosity (293.15 K, w1 = 0.6): 38.31 ± 3.9 mPa·s; viscosity (293.15 K, w1 = 0.7): 220.7 ± 24 mPa·s |
| O=C[C@H](O)[C@@H](O)[C@H](O)[C@H](O)CO [D-glucose] + O | 2.39 ± 0.59 | 2.908 ± 0.31 | 4.3 ± 0.57 | 8.17 ± 0.82 | 15.28 ± 1.5 | 1.98 ± 0.4 | 2.47 ± 0.41 | 3.46 ± 0.45 | 5.94 ± 0.6 | 11.19 ± 1.9 | 1.76 ± 0.35 | 2.02 ± 0.33 | 2.93 ± 0.29 | 4.83 ± 0.48 | 9.63 ± 0.97 | 1.36 ± 0.33 | 1.58 ± 0.42 | 2.13 ± 0.26 | 3.46 ± 0.35 | 6.21 ± 0.62 | viscosity (268.15 K, w1 = 0.5): 50.8 ± 5.2 mPa·s; viscosity (273.15 K, w1 = 0.5): 37.31 ± 3.8 mPa·s; viscosity (278.15 K, w1 = 0.5): 26.54 ± 2.7 mPa·s; viscosity (283.15 K, w1 = 0.5): 20.52 ± 2.1 mPa·s; viscosity (293.15 K, w1 = 0.5): 13.43 ± 1.4 mPa·s |
| OC[C@H]1O[C@@](CO)(O[C@H]2O[C@H](CO)[C@@H](O)[C@H](O)[C@H]2O)[C@@H](O)[C@@H]1O [D-sucrose] + O | 2.45 ± 0.33 | 2.978 ± 0.52 | 4.42 ± 0.45 | 7.19 ± 0.74 | 19.81 ± 2 | 1.91 ± 0.45 | 2.472 ± 0.25 | 3.48 ± 0.35 | 5.99 ± 0.6 | 14.22 ± 1.4 | 1.72 ± 0.38 | 2.02 ± 0.33 | 3.01 ± 0.38 | 5.06 ± 0.51 | 11.31 ± 1.2 | 1.246 ± 0.19 | 1.48 ± 0.33 | 2.38 ± 0.42 | 3.46 ± 0.4 | 7.53 ± 0.75 | viscosity (268.15 K, w1 = 0.4): 25.48 ± 2.6 mPa·s; viscosity (268.15 K, w1 = 0.5): 92.4 ± 11 mPa·s; viscosity (268.15 K, w1 = 0.6): 491.8 ± 50 mPa·s; viscosity (273.15 K, w1 = 0.5): 66.8 ± 6.8 mPa·s; viscosity (273.15 K, w1 = 0.6): 316.5 ± 32 mPa·s; viscosity (278.15 K, w1 = 0.5): 42.93 ± 4.4 mPa·s; viscosity (278.15 K, w1 = 0.6): 228.9 ± 50 mPa·s; viscosity (283.15 K, w1 = 0.5): 31.33 ± 3.2 mPa·s; viscosity (283.15 K, w1 = 0.6): 153.1 ± 16 mPa·s; viscosity (293.15 K, w1 = 0.5): 20.09 ± 2 mPa·s; viscosity (293.15 K, w1 = 0.6): 83.9 ± 8.5 mPa·s |
